Measurements reported in patent US20220079894A1, “STABLE PHARMACEUTICAL COMPOSITIONS” (priority 2020, published 2022).
Structures can show the parent of a compound that is named as a salt.

Assay: NDMA content of Metformin Extended Release Tablets by LC-MS
Format: physicochemical
Conditions: active substance of lot XP9004
Method: Of particular concern is the level of NDMA in a class of anti-diabetic drugs including metformin hydrochloride tablets. Since these drugs are administered over a long period of time to patients, the amount of NDMA impurity in such products is of particular concern. It has been established that the 96 ng is the Acceptable Daily Intake Limit (ADI) for N-Nitrosodimethylamine (NDMA) in Metformin Hydrochloride tablets. The levels of NDMA in metformin hydrochloride tablets can be determined by analytical methods like Liquid Chromatography-Mass Spectrometry. Other drugs that can have similar issues are anti-diabetic drugs, a drug to treat Gastroesophageal Reflux Diseases (GERD) or an Angiotensis II receptor antagonist drug (ARBs).
This meant that the potential daily exposure of NDMA in the product was 160 ng/day

NDMA in the active substance used in the lot: no detectable NDMA
SMILES: CN(C)C(=N)N=C(N)N [active substance, Metformin Hydrochloride]
